According to a compilation of properties of binary mixtures (doi:10.1021/jp5065243):

Experiment: xn = mol fraction of the nth substance listed
Conditions: 101 kPa

CCCC[N+](C)(C)C.O=S(=O)([N-]S(=O)(=O)C(F)(F)F)C(F)(F)F + CC(O)C(C)O
viscosity (323.15 K, x2 = 0): 35.6 mPa·s | viscosity (333.15 K, x2 = 0): 25.7 mPa·s | viscosity (338.15 K, x2 = 0): 22.1 mPa·s | viscosity (343.15 K, x2 = 0): 19.2 mPa·s

CCCC[N+](C)(C)C.O=S(=O)([N-]S(=O)(=O)C(F)(F)F)C(F)(F)F + CC(O)CO
viscosity (323.15 K, x2 = 0.132): 25.2 mPa·s | viscosity (323.15 K, x2 = 0.1909): 22.8 mPa·s | viscosity (323.15 K, x2 = 0.3054): 19.6 mPa·s | viscosity (323.15 K, x2 = 0.5274): 15.85 mPa·s | viscosity (323.15 K, x2 = 0.7262): 14.66 mPa·s | viscosity (323.15 K, x2 = 0.8149): 12.95 mPa·s | viscosity (328.15 K, x2 = 0): 30 mPa·s | viscosity (328.15 K, x2 = 0.132): 21.4 mPa·s | viscosity (328.15 K, x2 = 0.3054): 16.72 mPa·s | viscosity (328.15 K, x2 = 0.5274): 13.36 mPa·s | viscosity (328.15 K, x2 = 0.7262): 12.33 mPa·s | viscosity (328.15 K, x2 = 0.8149): 10.63 mPa·s | viscosity (328.15 K, x2 = 0.8843): 9.67 mPa·s | viscosity (333.15 K, x2 = 0): 25.7 mPa·s | viscosity (333.15 K, x2 = 0.132): 18.4 mPa·s | viscosity (333.15 K, x2 = 0.1909): 16.53 mPa·s | viscosity (333.15 K, x2 = 0.5274): 11.41 mPa·s | viscosity (333.15 K, x2 = 0.7262): 10.46 mPa·s | viscosity (333.15 K, x2 = 0.8149): 8.85 mPa·s | viscosity (333.15 K, x2 = 0.8843): 8.04 mPa·s | viscosity (338.15 K, x2 = 0.132): 15.98 mPa·s | viscosity (338.15 K, x2 = 0.1909): 14.01 mPa·s | viscosity (338.15 K, x2 = 0.7262): 8.91 mPa·s | viscosity (338.15 K, x2 = 0.8843): 6.68 mPa·s | viscosity (343.15 K, x2 = 0.132): 13.99 mPa·s | viscosity (343.15 K, x2 = 0.1909): 12.36 mPa·s | viscosity (343.15 K, x2 = 0.3054): 10.89 mPa·s | viscosity (343.15 K, x2 = 0.5274): 8.6 mPa·s | viscosity (343.15 K, x2 = 0.7262): 7.59 mPa·s | viscosity (343.15 K, x2 = 0.8149): 6.35 mPa·s | viscosity (343.15 K, x2 = 0.8843): 5.62 mPa·s | viscosity (348.15 K, x2 = 0.132): 12.65 mPa·s | viscosity (348.15 K, x2 = 0.3054): 9.89 mPa·s | viscosity (348.15 K, x2 = 0.7262): 6.68 mPa·s | viscosity (348.15 K, x2 = 0.8843): 4.96 mPa·s | viscosity (353.15 K, x2 = 0): 15.63 mPa·s | viscosity (353.15 K, x2 = 0.132): 11.91 mPa·s | viscosity (353.15 K, x2 = 0.1909): 10.8 mPa·s | viscosity (353.15 K, x2 = 0.3054): 9.3 mPa·s | viscosity (353.15 K, x2 = 0.5274): 7.51 mPa·s | viscosity (353.15 K, x2 = 0.7262): 6.1 mPa·s | viscosity (353.15 K, x2 = 0.8843): 4.62 mPa·s

C[N+](C)(C)CCO.O=S(=O)([N-]S(=O)(=O)C(F)(F)F)C(F)(F)F + CC(O)CO
viscosity (313.15 K, x2 = 0.2189): 37.3 mPa·s | viscosity (313.15 K, x2 = 0.3834): 31.1 mPa·s | viscosity (313.15 K, x2 = 0.5867): 26.7 mPa·s | viscosity (313.15 K, x2 = 0.7668): 22 mPa·s | viscosity (313.15 K, x2 = 0.8744): 19.7 mPa·s | viscosity (318.15 K, x2 = 0): 46.8 mPa·s | viscosity (318.15 K, x2 = 0.2189): 31.1 mPa·s | viscosity (318.15 K, x2 = 0.3834): 26.2 mPa·s | viscosity (318.15 K, x2 = 0.5867): 21.9 mPa·s | viscosity (318.15 K, x2 = 0.7668): 17.9 mPa·s | viscosity (318.15 K, x2 = 0.8744): 15.95 mPa·s | viscosity (323.15 K, x2 = 0): 39.3 mPa·s | viscosity (323.15 K, x2 = 0.2189): 26.2 mPa·s | viscosity (323.15 K, x2 = 0.3834): 21.7 mPa·s | viscosity (323.15 K, x2 = 0.4786): 19.8 mPa·s | viscosity (323.15 K, x2 = 0.5867): 18.2 mPa·s | viscosity (323.15 K, x2 = 0.7668): 14.79 mPa·s | viscosity (323.15 K, x2 = 0.8744): 13.08 mPa·s | viscosity (328.15 K, x2 = 0): 33.4 mPa·s | viscosity (328.15 K, x2 = 0.2189): 22.3 mPa·s | viscosity (328.15 K, x2 = 0.3834): 18.6 mPa·s | viscosity (328.15 K, x2 = 0.4786): 16.76 mPa·s | viscosity (328.15 K, x2 = 0.7668): 12.4 mPa·s | viscosity (328.15 K, x2 = 0.8744): 10.84 mPa·s | viscosity (333.15 K, x2 = 0.2189): 19.2 mPa·s | viscosity (333.15 K, x2 = 0.3834): 15.87 mPa·s | viscosity (333.15 K, x2 = 0.4786): 14.37 mPa·s | viscosity (333.15 K, x2 = 0.5867): 13.15 mPa·s | viscosity (333.15 K, x2 = 0.7668): 10.52 mPa·s | viscosity (333.15 K, x2 = 0.8744): 9.12 mPa·s | viscosity (338.15 K, x2 = 0.2189): 16.54 mPa·s | viscosity (338.15 K, x2 = 0.3834): 13.73 mPa·s | viscosity (338.15 K, x2 = 0.4786): 12.63 mPa·s | viscosity (338.15 K, x2 = 0.5867): 11.34 mPa·s | viscosity (338.15 K, x2 = 0.7668): 9.01 mPa·s | viscosity (338.15 K, x2 = 0.8744): 7.72 mPa·s | viscosity (343.15 K, x2 = 0): 21.6 mPa·s | viscosity (343.15 K, x2 = 0.4786): 10.88 mPa·s | viscosity (343.15 K, x2 = 0.5867): 9.88 mPa·s | viscosity (343.15 K, x2 = 0.7668): 7.78 mPa·s | viscosity (348.15 K, x2 = 0.2189): 12.98 mPa·s | viscosity (348.15 K, x2 = 0.3834): 10.65 mPa·s | viscosity (348.15 K, x2 = 0.4786): 9.6 mPa·s | viscosity (348.15 K, x2 = 0.5867): 8.68 mPa·s | viscosity (348.15 K, x2 = 0.7668): 6.77 mPa·s | viscosity (348.15 K, x2 = 0.8744): 5.69 mPa·s | viscosity (353.15 K, x2 = 0): 16.9 mPa·s | viscosity (353.15 K, x2 = 0.2189): 11.55 mPa·s | viscosity (353.15 K, x2 = 0.3834): 9.42 mPa·s | viscosity (353.15 K, x2 = 0.4786): 8.48 mPa·s | viscosity (353.15 K, x2 = 0.5867): 7.67 mPa·s | viscosity (353.15 K, x2 = 0.7668): 5.91 mPa·s | viscosity (353.15 K, x2 = 0.8744): 4.91 mPa·s

CCCC[N+](C)(C)C.O=S(=O)([N-]S(=O)(=O)C(F)(F)F)C(F)(F)F + CCC(O)CO
viscosity (323.15 K, x2 = 0): 35.6 mPa·s | viscosity (323.15 K, x2 = 0.2291): 22.5 mPa·s | viscosity (323.15 K, x2 = 0.3543): 19.1 mPa·s | viscosity (323.15 K, x2 = 0.5116): 16.9 mPa·s | viscosity (323.15 K, x2 = 0.8622): 13.55 mPa·s | viscosity (323.15 K, x2 = 0.9031): 13.23 mPa·s | viscosity (328.15 K, x2 = 0.2291): 19.1 mPa·s | viscosity (328.15 K, x2 = 0.3543): 16.13 mPa·s | viscosity (328.15 K, x2 = 0.5116): 14.18 mPa·s | viscosity (328.15 K, x2 = 0.6289): 13.27 mPa·s | viscosity (328.15 K, x2 = 0.8622): 10.93 mPa·s | viscosity (328.15 K, x2 = 0.9031): 10.7 mPa·s | viscosity (333.15 K, x2 = 0): 25.7 mPa·s | viscosity (333.15 K, x2 = 0.2291): 16.35 mPa·s | viscosity (333.15 K, x2 = 0.3543): 13.78 mPa·s | viscosity (333.15 K, x2 = 0.5116): 12.01 mPa·s | viscosity (333.15 K, x2 = 0.6289): 11.03 mPa·s | viscosity (333.15 K, x2 = 0.8622): 8.96 mPa·s | viscosity (333.15 K, x2 = 0.9031): 8.68 mPa·s | viscosity (338.15 K, x2 = 0): 22.1 mPa·s | viscosity (338.15 K, x2 = 0.5116): 10.29 mPa·s | viscosity (338.15 K, x2 = 0.6289): 9.35 mPa·s | viscosity (338.15 K, x2 = 0.8622): 7.44 mPa·s | viscosity (338.15 K, x2 = 0.9031): 7.12 mPa·s | viscosity (343.15 K, x2 = 0): 19.2 mPa·s | viscosity (343.15 K, x2 = 0.3543): 10.4 mPa·s | viscosity (343.15 K, x2 = 0.5116): 8.9 mPa·s | viscosity (343.15 K, x2 = 0.6289): 8.1 mPa·s | viscosity (343.15 K, x2 = 0.8622): 6.26 mPa·s | viscosity (343.15 K, x2 = 0.9031): 5.98 mPa·s | viscosity (348.15 K, x2 = 0): 16.81 mPa·s | viscosity (348.15 K, x2 = 0.2291): 10.93 mPa·s | viscosity (348.15 K, x2 = 0.3543): 9.13 mPa·s | viscosity (348.15 K, x2 = 0.5116): 7.77 mPa·s | viscosity (348.15 K, x2 = 0.8622): 5.32 mPa·s | viscosity (348.15 K, x2 = 0.9031): 5.19 mPa·s | viscosity (353.15 K, x2 = 0): 15.63 mPa·s | viscosity (353.15 K, x2 = 0.2291): 10.09 mPa·s | viscosity (353.15 K, x2 = 0.3543): 8.39 mPa·s | viscosity (353.15 K, x2 = 0.6289): 6.33 mPa·s | viscosity (353.15 K, x2 = 0.9031): 4.58 mPa·s
